Earlier results on 2 molecules are cited in patent US20100086625A1, “METHODS FOR TREATING SKIN LESIONS” (priority 2008, published 2010).

The subject of the data set is cold sores. The following applies: oral.

As to `CC(C)[C@H](N)C(=O)OCCOCn1cnc2c(=O)[nH]c(N)nc21` [valacyclovir], the “shortening of a herpes infection” value (2 gm twice a day for one day) is “over one”.

`CC(=O)OCC(CCn1cnc2cnc(N)nc21)COC(C)=O` [famciclovir]: the “shortening of the herpes infection” value (1500 mg) is on record as “two”.
